In patent US5952511A, “Indolin-2-one derivatives” (Chugai Seiyaku Kabushiki Kaisha, priority 1993, dated 1999):

Columns and labels:
gastrin receptors = settings: in words; cited from earlier work
CCK-B receptors = settings: in words; cited from earlier work
[1] = target: T1, gastrin receptors (guinea pig gastric glands) (Cavia porcellus, UniProt H0VZC5); test: Gastrin Receptor Binding Test in Guinea Pig Gastric Glands (Test Example 1); set-up: species or system guinea pig (Hartley, male); settings: inhibition of specific 125I-gastrin I human binding (22.5 pM), 25° C., 45 min
T1 construct: The gastric glands were isolated from the tissue with a pipette; from tissue; host or cells: isolated gastric glands from gastric mucosa of Hartley male guinea pigs
T1 sequence (H0VZC5 1-426): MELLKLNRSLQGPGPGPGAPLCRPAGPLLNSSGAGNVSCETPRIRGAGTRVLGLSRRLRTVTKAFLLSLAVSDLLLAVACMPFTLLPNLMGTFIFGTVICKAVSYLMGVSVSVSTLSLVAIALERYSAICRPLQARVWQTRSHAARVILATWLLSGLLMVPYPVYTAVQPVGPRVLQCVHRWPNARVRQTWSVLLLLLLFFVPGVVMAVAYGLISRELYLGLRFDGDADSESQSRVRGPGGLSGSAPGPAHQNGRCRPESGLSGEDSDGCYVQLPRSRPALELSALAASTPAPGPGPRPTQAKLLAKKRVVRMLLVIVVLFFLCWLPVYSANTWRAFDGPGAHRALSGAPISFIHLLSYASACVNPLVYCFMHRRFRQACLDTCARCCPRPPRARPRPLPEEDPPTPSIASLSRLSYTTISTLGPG
Protocol: Gastrin Receptor Binding Test in Guinea Pig Gastric Glands
Preparation of Gastric Glands:
Guinea pig gastric glands were prepared according to the method of Chang, et al., Biochem. Biophys. Res. Commun., 134, 895 (1986). The gastric mucosa of a Hartley male guinea pig was peeled off. After washing, the mucosa was minced with scissors in buffer A (Eagle's MEM containing 2 mM L-glutamine and 25 mM HEPES; pH 7.4). After washing, the minced tissue was incubated in buffer A containing 0.025% collagenase, 0.01% soy bean trypsin inhibitor, and 0.1% BSA at 37° C. for 60 minutes under 95% O2 and 5% CO2. The gastric glands were isolated from the tissue with a pipette, washed twice with buffer A, and filtered through a mesh. Then, the gastric glands were obtained by centrifugation.
Guinea pig gastric glands were resuspended in buffer B (Hank's solution containing 10 mM HEPES and 0.2% BSA; pH 7.4) (10 ml of buffer B per guinea pig).
To 200 μl of the suspension containing the resuspended isolated gastric glands were added 20 μl of ^125 I-gastrin I human (final concentration: 22.5 pM). Then, 10 μl of a test compound or a solvent (for total binding) or 10 μM Pentagastrin (for nonspecific binding), and buffer B was added there to make a total volume of 1 ml. The reaction mixture was incubated at 25° C. for 45 minutes and then centrifuged at 12000 g. The supernatant was removed by suction, and the radioactivity of the isolated gastric glands was measured with a gamma-counter.
The specific binding of gastrin to gastrin receptors was obtained from a difference between the total binding and the nonspecific binding. The IC50 of the test compound in inhibition of specific binding was calculated.

gastric acid secretion [2] = test: Inhibitory Activity on Gastric Acid Secretion in Pylorus Ligated Rats (Test Example 2); assay type: in vivo, rat (Sprague-Dawley, male); settings: Rattus norvegicus, intraduodenal, 10 mg/kg, i.d., 4 h
Protocol: Inhibitory Activity on Gastric Acid Secretion in Pyrolus Ligated Rats
Sprague-Dawley male rats weighing about 200 g were deprived of food for 24 hours while allowed water ad libitum. The abdomen was opened under anesthesia with ethyl ether, the pyrolus ligated, and the abdomen closed. The rats were deprived of food and water for 4 hours until they were surcrified with ethyl ether. The stomach was removed, and gastric juice was collected and measured. The gastric juice was centrifuged at 3000 rpm, and the supernatant was titrated up to pH 7.0 with 0.1N NaOH solution to obtain the acidity of the gastric juice. The amount of the gastric acid output was calculated by multiplying the gastric juice volume by the acidity, and the percent inhibition of acid secretion was obtained according to the following equation. A test compound, suspended in a 3% gum arabic solution, was administered intraduodenally at a dose of 2 ml/kg immediately after the pyrolus ligation.
Inhibition (%)=[(Average amount of gastric acid output in control group--Average amount of gastric acid output in test group)/Average amount of gastric acid secreted […]]×100

[3] = target: T2, CCK-B receptors (rat cerebral cortex) (Rattus norvegicus, UniProt P30553); test: CCK-B Receptor Binding Test in Rat Cerebral Cortex (Test Example 3); set-up: species or system rat (Sprague-Dawley, male); settings: inhibition of specific 125I-CCK-8 sulfated binding (15 pM), 25° C., 120 min
T2 construct: Cerebral cortex was minced in the same buffer, and homogenized with Polytron; from tissue; host or cells: cerebral cortex membrane fraction of Sprague-Dawley male rats
T2 sequence (P30553 1-452): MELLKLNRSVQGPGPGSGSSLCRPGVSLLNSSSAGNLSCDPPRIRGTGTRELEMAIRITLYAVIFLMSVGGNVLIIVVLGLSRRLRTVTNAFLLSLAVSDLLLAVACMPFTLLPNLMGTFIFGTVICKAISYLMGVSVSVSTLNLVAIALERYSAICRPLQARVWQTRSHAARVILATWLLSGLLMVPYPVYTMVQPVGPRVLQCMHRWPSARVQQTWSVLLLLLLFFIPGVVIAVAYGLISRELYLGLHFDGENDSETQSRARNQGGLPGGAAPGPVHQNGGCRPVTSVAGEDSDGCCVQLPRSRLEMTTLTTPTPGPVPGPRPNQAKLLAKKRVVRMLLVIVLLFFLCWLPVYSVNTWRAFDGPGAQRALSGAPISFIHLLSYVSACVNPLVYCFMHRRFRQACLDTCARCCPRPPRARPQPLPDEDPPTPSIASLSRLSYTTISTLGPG
Protocol: CCK-B Receptor Binding Test in Rat Cerebral Cortex
A rat cortical membrane fraction was prepared in accordance with the method of Chang, et al., Proc. Natl. Acad. Sci., U.S.A., 83, 4923 (1986). Sprague-Dawley male rats were sucrified and the brains were removed and immersed in a 50 mM Tris-HCl buffer (pH 7.4) under ice-cooling, and the cortex was dissected. Cerebral cortex was minced in the same buffer, and homogenized with Polytron. The homogenate was centrifuged at 2,500 g, and the supernatant was further centrifuged at 50,000 g. The pellet was resuspended in a reaction buffer solution (10 mM HEPES, 5 mM MgCl2, 1 mM EGTA, 130 mM NaCl; pH 6.5).
To 150 μl of the resulting rat cerebral cortex suspension were added 20 μl of ^125 I-CCK-8 sulfated (final concentration: 15 pM) and 10 μl of a test compound or a solvent (for total binding) or 1 μM CCK-8 sulfated (for nonspecific binding), and the reaction buffer solution was added there to make 1 ml. The reaction mixture was incubated at 25° C. for 120 minutes, followed by filtration through a GF/B filter (produced by Whatman). The radio-activity of the membrane fraction adsorbed onto the filter was measured with a gamma-counter.
The specific binding to CCK-B receptors was obtained from a difference between the total binding and the nonspecific binding. The IC50 of the test compound in inhibition of specific binding was calculated.

gastric acid secretion [4] = settings: in words; cited from earlier work

| IC50 [1] [nM] | IC50 [3] [nM] | SMILES | binding activity to gastrin receptors (gastrin receptors) | binding activity to CCK-B receptors (CCK-B receptors) | inhibition in vivo at 10 mg/kg (gastric acid secretion [2]) [%] | inhibitory activity on gastric acid secretion when administered in vivo (gastric acid secretion [4]) |
| --- | --- | --- | --- | --- | --- | --- |
|  |  | CCCN(CCC)C(=O)C(CCC(=O)O)NC(=O)c1ccccc1 (stereo not shown) [Proglumide] | very weak | very weak |  |  |
| 2.9 | 0.18 | CCOC(CN1C(=O)C(CC(=O)Nc2ccc(C)c(C)c2)(NC(=O)Nc2ccc(C)cc2)c2ccccc21)OCC (racemic) [Example 122, (RS)-1-(2,2-Diethoxyethyl)-3-((3,4-dimethylphenyl)aminocarbonylmethyl)-3-(N'-(4-methylphenyl)ureido)indolin-2-one] |  |  | 62 |  |
| 6.5 | 2.8 | CCOC(CN1C(=O)C(CC(=O)Nc2ccc(N(C)C)cc2)(NC(=O)Nc2cccc(OC)c2)c2ccccc21)OCC (racemic) [Example 156] |  |  | 69 |  |
|  |  | Cc1cccc(NC(=O)N[C@@H]2N=C(c3ccccc3)c3ccccc3N(C)C2=O)c1 [L-365,260] | high binding activity to gastrin receptors |  |  | do not exert powerful inhibitory activity on gastric acid secretion |
| 0.68 | 0.1 | CCOC(CN1C(=O)C(CC(=O)Nc2ccc(C)cn2)(NC(=O)Nc2cccc(OC)c2)c2ccccc21)OCC (single isomer, unassigned; (+)) [Example 190, (+)-1-(2,2-Diethoxyethyl)-3-(N'-(3-methoxyphenyl)ureido)-3-((5-methylpyrido-2-yl)aminocarbonylmethyl)indolin-2-one] |  |  | 70 |  |
| 5.1 | 0.35 | CCOC(CN1C(=O)C(CC(=O)Nc2cccc(C)c2)(NC(=O)Nc2ccc(C)cc2)c2ccccc21)OCC (racemic) [Example 111, (RS)-1-(2,2-Diethoxyethyl)-3-((3-methylphenyl)aminocarbonylmethyl)-3-(N'-(4-methylphenyl)ureido)indolin-2-one] |  |  | 69 |  |
| 1.6 | 0.14 | CCOC(CN1C(=O)C(CC(=O)Nc2ccc(C)cn2)(NC(=O)Nc2ccc(C)cc2)c2ccccc21)OCC (single isomer, unassigned; (+)) [Example 179] |  |  | 63 |  |
| 1.5 | 1.9 | CCOC(CN1C(=O)C(CC(=O)Nc2ccc(OC)nc2)(NC(=O)Nc2ccc(C)cc2)c2ccccc21)OCC (racemic) [Example 143, (RS)-1-(2,2-Diethoxtyethyl)-3-((2-methoxypyrido-5-yl)aminocarbonylmethyl)-3-(N'-(4-methylphenyl)ureido)indolin-2-one] |  |  | 64 |  |
| 4.9 | 2.3 | CCOC(CN1C(=O)C(CC(=O)Nc2ccc(N(C)C)cc2)(NC(=O)Nc2ccc(C)cc2)c2ccccc21)OCC (racemic) [Example 130, (RS)-1-(2,2-Diethoxyethyl)-3-((4-(N,N-dimethylamino)phenyl)aminocarbonylmethyl)-3-(N'-(4-methylphenyl)ureido)indolin-2-one] |  |  | 71 |  |
| 2.4 | 0.64 | CCOC(CN1C(=O)C(CC(=O)Nc2ccc(Cl)cc2)(NC(=O)Nc2ccc(C)cc2)c2ccccc21)OCC (racemic) [Example 114, (RS)-3-((4-Chlorophenyl)aminocarbonylmethyl)-1-(2,2-diethoxyethyl)-3-(N'-(4-methylphenyl)ureido)indolin-2-one] |  |  | 56 |  |
